Test results as given in patent publication US10392630B2, “Plants having increased tolerance to herbicides” (BASF AGRO B.V., priority 2013, dated 2019).
Values joined by “and” are separate entries in the source; they are usually repeats but may differ in a detail not shown here. Equal entries are not always repeated.

Assays:
[1] = system: Alopecurus wildtype PPO (ALOMY), PPO herbicide sensitive PPO2, SEQ ID NO 2; experiment: PPO enzyme assay, dose-response (fluorescence), wildtype Alopecurus PPO2; assay type: biochemical, Alopecurus myosuroides
[2] = system: transgenic soybean cv Jake cuttings; experiment: Herbicide injury of transgenic soybean cuttings from T0 plants (Table 7, FIG. 4); assay type: in vivo, Glyceine max; conditions: V2 spray, 1 week after treatment
[3] = system: transgenic Arabidopsis thaliana plants; experiment: Growth inhibition of transgenic Arabidopsis in 48-well plates, tolerance factor (Table 5, FIG. 2); assay type: in vivo; conditions: growth inhibition seven to ten days after seeding
[4] = system: transgenic T0 corn events; experiment: Herbicide injury of transgenic T0 corn events, greenhouse spray (Table 6a); assay type: in vivo, Zea mays; conditions: 7 days after treatment
[5] = target: Amaranthus wildtype PPO (AMARE), PPO herbicide sensitive PPO2 (Amaranthus tuberculatus, UniProt Q0NZW9); experiment: PPO enzyme assay, dose-response (fluorescence), wildtype Amaranthus PPO2; assay type: biochemical; conditions: IC50 (M), Table 3a
Chain of Amaranthus wildtype PPO (AMARE), PPO herbicide sensitive PPO2 (Q0NZW9 entry or part of it): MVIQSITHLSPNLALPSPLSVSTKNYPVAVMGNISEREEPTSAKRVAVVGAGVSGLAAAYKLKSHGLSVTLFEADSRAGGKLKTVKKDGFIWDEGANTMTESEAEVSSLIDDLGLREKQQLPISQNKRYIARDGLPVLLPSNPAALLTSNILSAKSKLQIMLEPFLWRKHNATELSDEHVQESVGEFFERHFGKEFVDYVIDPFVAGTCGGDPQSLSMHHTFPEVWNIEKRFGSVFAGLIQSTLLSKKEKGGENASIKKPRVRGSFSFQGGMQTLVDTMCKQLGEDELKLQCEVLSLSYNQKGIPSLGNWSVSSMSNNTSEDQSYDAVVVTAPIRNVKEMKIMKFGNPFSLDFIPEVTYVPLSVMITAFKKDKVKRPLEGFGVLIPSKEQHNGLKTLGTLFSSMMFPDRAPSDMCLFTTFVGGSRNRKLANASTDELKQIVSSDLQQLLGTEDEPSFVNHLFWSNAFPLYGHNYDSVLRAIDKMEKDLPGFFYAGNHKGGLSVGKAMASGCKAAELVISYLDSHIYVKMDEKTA

Structure (SMILES): C#CCN1C(=O)C(F)(F)Oc2cc(F)c(-n3c(=O)n(C)c(=S)n(C)c3=O)cc21 [BAS 850H]
- IC50 ([1]; Table 3a, PPO herbicide sensitive PPO2, SEQ ID NO 2, ALOMY): 0.0364 nM
- IC50 ([1]; Table 3b, SEQ ID NO 2, WT): 0.0364 nM
- Herbicide injury ([2]; AlomyPPO1_R138A T0 cuttings, BAS 850H 25 g ai/ha): 5 and 9
- Herbicide injury ([2]; AlomyPPO1_R138A T0 cuttings, BAS 850H 50 g ai/ha): 8 and 9
- Herbicide injury ([2]; AlomyPPO1_R138A_Y420M T0 cuttings, BAS 850H 25 g ai/ha): 7
- Herbicide injury ([2]; AlomyPPO1_R138A_Y420M T0 cuttings, BAS 850H 50 g ai/ha): 9
- Herbicide injury ([2]; AlomyPPO1_R138L T0 cuttings, BAS 850H 25 g ai/ha): 8 and 9 and 6
- Herbicide injury ([2]; AlomyPPO1_R138L T0 cuttings, BAS 850H 50 g ai/ha): 8 and 7 and 9
- Herbicide injury ([2]; AlomyPPO1_Y420M T0 cuttings, BAS 850H 25 g ai/ha): 6 and 5 and 9
- Herbicide injury ([2]; AlomyPPO1_Y420M T0 cuttings, BAS 850H 50 g ai/ha): 8 and 6 and 9
- Herbicide injury ([2]; AlomyPPO1_Y420V T0 cuttings, BAS 850H 50 g ai/ha): 9 and 7 and 8 and 5
- Herbicide injury ([2]; AlomyPPO2 T0 cuttings, BAS 850H 25 g ai/ha): 7 and 8 and 9
- Herbicide injury ([2]; AlomyPPO2 T0 cuttings, BAS 850H 50 g ai/ha): 9 and 8 and 7
- Herbicide injury ([2]; AlomyPPO2_R137A T0 cuttings, BAS 850H 25 g ai/ha): 7
- Herbicide injury ([2]; AlomyPPO2_R137A T0 cuttings, BAS 850H 50 g ai/ha): 7
- Herbicide injury ([2]; AlomyPPO2_R137A_F438I T0 cuttings, BAS 850H 25 g ai/ha): 4 and 5 and 7 and 8 and 6
- Herbicide injury ([2]; AlomyPPO2_R137A_F438I T0 cuttings, BAS 850H 50 g ai/ha): 5 and 6 and 7 and 8
- Herbicide injury ([2]; AlomyPPO2_R137A_F438I T0 cuttings, BAS 850H 75 g ai/ha): 5 and 8 and 7 and 9 and 6
- Herbicide injury ([2]; AlomyPPO2_R137A_F438L T0 cuttings, BAS 850H 25 g ai/ha): 6 and 9 and 8
- Herbicide injury ([2]; AlomyPPO2_R137A_F438L T0 cuttings, BAS 850H 50 g ai/ha): 7 and 9 and 5
- Herbicide injury ([2]; AlomyPPO2_R137A_F438L T0 cuttings, BAS 850H 75 g ai/ha): 7 and 9 and 5
- Herbicide injury ([2]; AlomyPPO2_R137A_F438V T0 cuttings, BAS 850H 50 g ai/ha): 4 and 5 and 6
- Herbicide injury ([2]; AlomyPPO2_R137A_F438V T0 cuttings, BAS 850H 75 g ai/ha): 5 and 7 and 6
- Herbicide injury ([2]; AlomyPPO2_R137I T0 cuttings, BAS 850H 50 g ai/ha): 6 and 5 and 7 and 9
- Herbicide injury ([2]; AlomyPPO2_R137L_F438I T0 cuttings, BAS 850H 25 g ai/ha): 8 and 9
- Herbicide injury ([2]; AlomyPPO2_R137L_F438I T0 cuttings, BAS 850H 50 g ai/ha): 9 and 8
- Herbicide injury ([2]; AlomyPPO2_R137L_F438I T0 cuttings, BAS 850H 75 g ai/ha): 9 and 8
- Herbicide injury ([2]; AlomyPPO2_R137M_F438L T0 cuttings, BAS 850H 50 g ai/ha): 7 and 4 and 5
- Herbicide injury ([2]; AlomyPPO2_R137M_F438L T0 cuttings, BAS 850H 75 g ai/ha): 7 and 6 and 5
- Herbicide injury ([2]; Wild type cuttings, BAS 850H 25 g ai/ha): 8
- Herbicide injury ([2]; Wild type cuttings, BAS 850H 50 g ai/ha): 9
- Herbicide injury ([2]; Wild type cuttings, BAS 850H 75 g ai/ha): 9
- TF (Tolerance Factor), relative tolerance rate (non-transgenic = 1.0) ([3]; transgenic Arabidopsis Am_PPO2_F438I): >50
- TF (Tolerance Factor), relative tolerance rate (non-transgenic = 1.0) ([3]; transgenic Arabidopsis Am_PPO2_R137A): >50
- TF (Tolerance Factor), relative tolerance rate (non-transgenic = 1.0) ([3]; transgenic Arabidopsis Am_PPO2_R137A_F438I): >50
- TF (Tolerance Factor), relative tolerance rate (non-transgenic = 1.0) ([3]; transgenic Arabidopsis Am_PPO2_R137A_F438L): >50
- TF (Tolerance Factor), relative tolerance rate (non-transgenic = 1.0) ([3]; transgenic Arabidopsis Am_PPO2_R137A_F438M): >50
- TF (Tolerance Factor), relative tolerance rate (non-transgenic = 1.0) ([3]; transgenic Arabidopsis Am_PPO2_R137A_F438V): >50
- TF (Tolerance Factor), relative tolerance rate (non-transgenic = 1.0) ([3]; transgenic Arabidopsis Am_PPO2_R137I): >50
- TF (Tolerance Factor), relative tolerance rate (non-transgenic = 1.0) ([3]; transgenic Arabidopsis Am_PPO2_R137L_F438I): >50
- TF (Tolerance Factor), relative tolerance rate (non-transgenic = 1.0) ([3]; transgenic Arabidopsis Am_PPO2_R137L_F438L): >50
- TF (Tolerance Factor), relative tolerance rate (non-transgenic = 1.0) ([3]; transgenic Arabidopsis Am_PPO2_R137L_F438M): >50
- TF (Tolerance Factor), relative tolerance rate (non-transgenic = 1.0) ([3]; transgenic Arabidopsis Am_PPO2_R137M_F438I): >50
- TF (Tolerance Factor), relative tolerance rate (non-transgenic = 1.0) ([3]; transgenic Arabidopsis Am_PPO2_R137M_F438L): >50
- TF (Tolerance Factor), relative tolerance rate (non-transgenic = 1.0) ([3]; transgenic Arabidopsis Am_PPO2_R137M_F438M): >50
- TF (Tolerance Factor), relative tolerance rate (non-transgenic = 1.0) ([3]; transgenic Arabidopsis Am_PPO2_R137M_F438V): >50
- Herbicide injury, 0 to 9 rating scale ([4]; T0 corn events AlomyPPO1_R138A, 50 g ai/ha + 1% (v/v) MSO at V2 stage): 6
- Herbicide injury, 0 to 9 rating scale ([4]; T0 corn events AlomyPPO1_R138A_Y420M, 50 g ai/ha + 1% (v/v) MSO at V2 stage): 5 and 6
- Herbicide injury, 0 to 9 rating scale ([4]; T0 corn events AlomyPPO1_R138A_Y420V, 50 g ai/ha + 1% (v/v) MSO at V2 stage): 6 and 5
- Herbicide injury, 0 to 9 rating scale ([4]; T0 corn events AlomyPPO1_R138A_Y420V, 100 g ai/ha + 1% (v/v) MSO at V2 stage): 5
- Herbicide injury, 0 to 9 rating scale ([4]; T0 corn events AlomyPPO1_Y420M, 50 g ai/ha + 1% (v/v) MSO at V2 stage): 5 and 6
- Herbicide injury, 0 to 9 rating scale ([4]; T0 corn events AlomyPPO1_Y420M, 100 g ai/ha + 1% (v/v) MSO at V2 stage): 6
- Herbicide injury, 0 to 9 rating scale ([4]; T0 corn events AlomyPPO1_Y420V, 50 g ai/ha + 1% (v/v) MSO at V2 stage): 5 and 4 and 6
- Herbicide injury, 0 to 9 rating scale ([4]; T0 corn events AlomyPPO1_Y420V, 100 g ai/ha + 1% (v/v) MSO at V2 stage): 6
- Herbicide injury, 0 to 9 rating scale ([4]; T0 corn events AlomyPPO2, 50 g ai/ha + 1% (v/v) MSO at V2 stage): 6
- Herbicide injury, 0 to 9 rating scale ([4]; T0 corn events AlomyPPO2, 75 g ai/ha + 1% (v/v) MSO at V2 stage): 6
- Herbicide injury, 0 to 9 rating scale ([4]; T0 corn events AlomyPPO2_R137A, 50 g ai/ha + 1% (v/v) MSO at V2 stage): 5 and 4 and 6
- Herbicide injury, 0 to 9 rating scale ([4]; T0 corn events AlomyPPO2_R137A, 75 g ai/ha + 1% (v/v) MSO at V2 stage): 5
- Herbicide injury, 0 to 9 rating scale ([4]; T0 corn events AlomyPPO2_R137A_F438I, 50 g ai/ha + 1% (v/v) MSO at V2 stage): 4
- Herbicide injury, 0 to 9 rating scale ([4]; T0 corn events AlomyPPO2_R137A_F438I, 100 g ai/ha + 1% (v/v) MSO at V2 stage): 4 and 5
- Herbicide injury, 0 to 9 rating scale ([4]; T0 corn events AlomyPPO2_R137A_F438M, 100 g ai/ha + 1% (v/v) MSO at V2 stage): 5
- Herbicide injury, 0 to 9 rating scale ([4]; T0 corn events AlomyPPO2_R137A_F438V, 100 g ai/ha + 1% (v/v) MSO at V2 stage): 6
- Herbicide injury, 0 to 9 rating scale ([4]; T0 corn events AlomyPPO2_R137I, 100 g ai/ha + 1% (v/v) MSO at V2 stage): 4
- Herbicide injury, 0 to 9 rating scale ([4]; T0 corn events AlomyPPO2_R137M_F438I, 75 g ai/ha + 1% (v/v) MSO at V2 stage): 3 and 4
- Herbicide injury, 0 to 9 rating scale ([4]; T0 corn events tp-SorbiPPO2::AlomyPPO2, 50 g ai/ha + 1% (v/v) MSO at V2 stage): 5 and 6
- Herbicide injury, 0 to 9 rating scale ([4]; T0 corn events tp-SorbiPPO2::AlomyPPO2, 100 g ai/ha + 1% (v/v) MSO at V2 stage): 5
- Herbicide injury, 0 to 9 rating scale ([4]; T0 corn events tp-SorbiPPO2::AlomyPPO2_F431V, 50 g ai/ha + 1% (v/v) MSO at V2 stage): 4 and 5
- Herbicide injury, 0 to 9 rating scale ([4]; T0 corn events tp-SorbiPPO2::AlomyPPO2_F431V, 100 g ai/ha + 1% (v/v) MSO at V2 stage): 5 and 6
- Herbicide injury, 0 to 9 rating scale ([4]; T0 corn events tp-SorbiPPO2::AlomyPPO2_R130A, 50 g ai/ha + 1% (v/v) MSO at V2 stage): 4 and 5
- Herbicide injury, 0 to 9 rating scale ([4]; T0 corn events tp-SorbiPPO2::AlomyPPO2_R130A_F431V, 100 g ai/ha + 1% (v/v) MSO at V2 stage): 7 and 6
- Herbicide injury, 0 to 9 rating scale ([4]; T0 corn events tp-SorbiPPO2::c-AlomyPPO2_R130A_F431M, 50 g ai/ha + 1% (v/v) MSO at V2 stage): 4 and 5
- Herbicide injury, 0 to 9 rating scale ([4]; T0 corn events tp-SorbiPPO2::c-AlomyPPO2_R130L_F431V, 50 g ai/ha + 1% (v/v) MSO at V2 stage): 4 and 3 and 5
- Herbicide injury, 0 to 9 rating scale ([4]; T0 corn events tp-ZeamaPPO2::AlomyPPO2, 50 g ai/ha + 1% (v/v) MSO at V2 stage): 5 and 6
- Herbicide injury, 0 to 9 rating scale ([4]; T0 corn events tp-ZeamaPPO2::AlomyPPO2_F431V, 50 g ai/ha + 1% (v/v) MSO at V2 stage): 3 and 4 and 5
- Herbicide injury, 0 to 9 rating scale ([4]; T0 corn events tp-ZeamaPPO2::AlomyPPO2_F431V, 100 g ai/ha + 1% (v/v) MSO at V2 stage): 4
- Herbicide injury, 0 to 9 rating scale ([4]; T0 corn events tp-ZeamaPPO2::AlomyPPO2_R130A, 50 g ai/ha + 1% (v/v) MSO at V2 stage): 7 and 4 and 5 and 6
- Herbicide injury, 0 to 9 rating scale ([4]; T0 corn events tp-ZeamaPPO2::AlomyPPO2_R130A, 100 g ai/ha + 1% (v/v) MSO at V2 stage): 5
- Herbicide injury, 0 to 9 rating scale ([4]; T0 corn events tp-ZeamaPPO2::AlomyPPO2_R130A_F431V, 50 g ai/ha + 1% (v/v) MSO at V2 stage): 4 and 5
- Herbicide injury, 0 to 9 rating scale ([4]; T0 corn events tp-ZeamaPPO2::c-AlomyPPO2_R130L_F431V, 50 g ai/ha + 1% (v/v) MSO at V2 stage): 3 and 4 and 5 and 6
- Herbicide injury, 0 to 9 rating scale ([4]; T0 corn events tp-ZeamaPPO2::c-AlomyPPO2_R130M_F431V, 50 g ai/ha + 1% (v/v) MSO at V2 stage): 3 and 4 and 2
- Herbicide injury, 0 to 9 rating scale ([4]; untransformed wild type corn, 50 g ai/ha + 1% (v/v) MSO at V2 stage): 6
- Herbicide injury, 0 to 9 rating scale ([4]; untransformed wild type corn, 75 g ai/ha + 1% (v/v) MSO at V2 stage): 6
- Herbicide injury, 0 to 9 rating scale ([4]; untransformed wild type corn, 100 g ai/ha + 1% (v/v) MSO at V2 stage): 6
- IC50 ([5]; PPO herbicide sensitive PPO2 AC): 5.96e-11 M
- IC50 ([5]; PPO herbicide sensitive PPO2 WC): 5.17e-10 M
